This data set is described as follows: recombinant UMI read abundance after kanamycin selection (control-corrected) (log10(CPM+1)); higher = more efficient recombination; extreme values may be limits of the assay; sequences stand for … in AGTGCAGAGAAAATCGGCCAGTTTTCTCTGCCTGCAGTCCGCATGCCGTGGGACCCCTTGGGTTCTAACCTGTTGCCTAGATTTATGCAGCGGACTGCCTTTCTCCCAAAGTGATAAACCGG…AGGTTGGTTTCACT; site = the 11-nt donor. The method in brief: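 Two replicates each of selected and unselected plating were used in this pooled Escherichia coli screen of donor and donor-binding-loop pairs for the IS621 bridge recombinase. Selection was with IPTG (0.07 mM) and kanamycin. Counts of recombinant UMIs, amplified across the donor–target junction, were converted to CPM, averaged, scaled by control-derived factors and reported as log10(CPM+1).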
With “CCCGGTACATGGACCGGTTTTCCCGGTAATCCGTATTTGCA (site CCCGGTGCTTG)”, the “recombinant UMI read abundance (log10)” value stood at 0.

On to “CCCGGTACATGGACCGGTTTTCCCGGTAATCCGTATTTGCA (site CCCGGTTCTTG)”, for which the “recombinant UMI read abundance (log10)” value worked out at 0.

On to “CCCGGTGCATGGACCGGTTTTCCCGGTAATCCGTATTTGAT (site CCAGGTGCTAT)”, for which the “recombinant UMI read abundance (log10)” value was 0.119.

Regarding “CCCGGTGCATGGACCGGTTTTCCCGGTAATCCGTATTTGAT (site CCCGGTGCTAT)”, the “recombinant UMI read abundance (log10)” value stood at 0.907.

In the case of “CCCGGTGCATGGACCGGTTTTCCCGGTAATCCGTATTTGAT (site CCGGGTGCTAT)”, the “recombinant UMI read abundance (log10)” value is 0.0111.

Consider “CCCGGTGCATGGACCGGTTTTCCCGGTAATCCGTATTTGAT (site CCTGGTGCTAT)”, for which the “recombinant UMI read abundance (log10)” value came out at 0.00284.

On to “CCCGGTGCATGGACCGGTTTTCCCGGTAATCCGTATTTGCA (site CCCGGTACTTG)”, for which the “recombinant UMI read abundance (log10)” value amounted to 0.

Consider “CCCGGTGCATGGACCGGTTTTCCCGGTAATCCGTATTTGCA (site CCCGGTCCTTG)”, for which the “recombinant UMI read abundance (log10)” value was 0.0126.

For the sequence “CCCGGTGCATGGACCGGTTTTCCCGGTAATCCGTATTTGCA (site CCCGGTGCTTG)”, the “recombinant UMI read abundance (log10)” value came to 0.

Turning to “CCCGGTGCATGGACCGGTTTTCCCGGTAATCCGTATTTGCA (site CCCGGTTCTTG)”, the “recombinant UMI read abundance (log10)” value worked out at 0.

As for “CCCGTATCATGGACCGGTTTTCCCGGTAATCCGTATTTGTC (site CCCATATCTGA)”, the “recombinant UMI read abundance (log10)” value worked out at 0.605.

On to “CCCGTATCATGGACCGGTTTTCCCGGTAATCCGTATTTGTC (site CCCCTATCTGA)”, for which the “recombinant UMI read abundance (log10)” value turned out to be 0.0235.

As for “CCCGTATCATGGACCGGTTTTCCCGGTAATCCGTATTTGTC (site CCCGTATCTGA)”, the “recombinant UMI read abundance (log10)” value came to 1.83.

Turning to “CCCGTATCATGGACCGGTTTTCCCGGTAATCCGTATTTGTC (site CCCTTATCTGA)”, the “recombinant UMI read abundance (log10)” value was 0.

Turning to “CCCGTCCCATGGACCGGTTTTCCCGGTAATCCGTATTTGGA (site CCCGTCCCTTC)”, the “recombinant UMI read abundance (log10)” value turned out to be 0.00421.

As to “CCCGTGACATGGACCGGTTTTCCCGGTAATCCGTATTTGAT (site CCCGTGACTAT)”, the “recombinant UMI read abundance (log10)” value was found to be 1.05.

For “CCCGTTCCATGGACCGGTTTTCCCGGTAATCCGTATTTGGC (site CCCGTTCCTGC)”, the “recombinant UMI read abundance (log10)” value was 0.

For the sequence “CCCGTTTCATGGACCGGTTTTCCCGGTAATCCGTATTTGAG (site CCCGTTTCTCT)”, the “recombinant UMI read abundance (log10)” value worked out at 0.807.

As for “CCCTACCCATGGACCGGTTTTCCCGGTAATCCGTATTTGCC (site CCCTAACCTGG)”, the “recombinant UMI read abundance (log10)” value amounted to 0.

For the sequence “CCCTACCCATGGACCGGTTTTCCCGGTAATCCGTATTTGCC (site CCCTACCCTGG)”, the “recombinant UMI read abundance (log10)” value came to 0.541.

As to “CCCTACCCATGGACCGGTTTTCCCGGTAATCCGTATTTGCC (site CCCTAGCCTGG)”, the “recombinant UMI read abundance (log10)” value was 0.

Take “CCCTACCCATGGACCGGTTTTCCCGGTAATCCGTATTTGCC (site CCCTATCCTGG)”: the “recombinant UMI read abundance (log10)” value was 0.

As for “CCCTAGACATGGACCGGTTTTCCCGGTAATCCGTATTTGGG (site ACCTAGACTCC)”, the “recombinant UMI read abundance (log10)” value is 0.036.

For the sequence “CCCTAGACATGGACCGGTTTTCCCGGTAATCCGTATTTGGG (site CCCTAGACTCC)”, the “recombinant UMI read abundance (log10)” value is 0.546.

On to “CCCTAGACATGGACCGGTTTTCCCGGTAATCCGTATTTGGG (site GCCTAGACTCC)”, for which the “recombinant UMI read abundance (log10)” value turned out to be 0.0233.

Regarding “CCCTAGACATGGACCGGTTTTCCCGGTAATCCGTATTTGGG (site TCCTAGACTCC)”, the “recombinant UMI read abundance (log10)” value worked out at 0.0148.

For “CCCTAGCCATGGACCGGTTTTCCCGGTAATCCGTATTTGCC (site ACCTAGCCTGG)”, the “recombinant UMI read abundance (log10)” value turned out to be 0.

As to “CCCTAGCCATGGACCGGTTTTCCCGGTAATCCGTATTTGCC (site CACTAGCCTGG)”, the “recombinant UMI read abundance (log10)” value came out at 0.

As for “CCCTAGCCATGGACCGGTTTTCCCGGTAATCCGTATTTGCC (site CCATAGCCTGG)”, the “recombinant UMI read abundance (log10)” value stood at 0.

Turning to “CCCTAGCCATGGACCGGTTTTCCCGGTAATCCGTATTTGCC (site CCCAAGCCTGG)”, the “recombinant UMI read abundance (log10)” value was determined as 0.

“CCCTAGCCATGGACCGGTTTTCCCGGTAATCCGTATTTGCC (site CCCCAGCCTGG)”: the “recombinant UMI read abundance (log10)” value stood at 0.

Take “CCCTAGCCATGGACCGGTTTTCCCGGTAATCCGTATTTGCC (site CCCGAGCCTGG)”: the “recombinant UMI read abundance (log10)” value was determined as 0.

With “CCCTAGCCATGGACCGGTTTTCCCGGTAATCCGTATTTGCC (site CCCTAACCTGG)”, the “recombinant UMI read abundance (log10)” value came out at 0.

As to “CCCTAGCCATGGACCGGTTTTCCCGGTAATCCGTATTTGCC (site CCCTACCCTGG)”, the “recombinant UMI read abundance (log10)” value stood at 0.

The values are drawn from the supplement of paper PMC11208160.
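Further: IS621 bridge recombinase in Escherichia coli cells against a fixed T5 target plasmid.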
